Assay results from patent US20260217699A1, “BERBERINE TAUROURSODEOXYCHOLATE COMPOSITIONS AND METHODS THEREOF” (SHENZHEN HIGHTIDE BIOPHARMACEUTICAL LTD., priority 2023, published 2026).

Key:
[1] = test system: microglia (Iba-1) positive cells; test: Immunofluorescence staining of Iba-1 in Str and SN brain regions; type: in vivo, Sprague-Dawley rats; conditions: Mean ± SEM, N=15; for Iba-1 staining SN positive cells num.: Model 397.8 ± 21.2; for Iba-1 staining Str positive cells num.: Model 668.3 ± 13.0
Procedure: After the rat was anesthetized, the abdominal cavity and thorax were cut open with straight scissors to expose the heart. The blood was first flushed out with normal saline perfusion, and then paraformaldehyde was used for initial perfusion fixation. The head was cut off, and the brain case was carefully opened with tweezers, and the brain tissue was removed and placed in paraformaldehyde solution and fix for 24 h; on the second day, took out the brain tissue and placed in 20% sucrose solution for 24 h; on the third day, took out the brain tissue and placed in 30% sucrose solution for 24 h; on the fourth day, took out the brain tissue and placed in 35% sucrose solution for 24 h (increase the time or concentration appropriately according to the condition of sugar deposition in the brain tissues); took out the brain tissue, embedded it in OCT embedding agent, and cut brain slices at the thickness of […] with a freezing microtome.
Immunohistochemical staining of TH and Iba-1 was performed on the sections. Sections were rewarmed for 30 min, closed at room temperature for 1 h with 50% serum+0.3% TritonX-100 in 50 μL per slice, shook off the slices, added primary antibody (diluted in PBS), overnight at 4° C.; rewarmed for 30 min; washed off primary antibody (PBS), 5 min×3 times; added secondary antibody (diluted in PBS) by backlighting, room temperature for 2 h; washed off secondary antibody (PBS), 5minx 3 times; added (4′,6-diamidino-2-phenylindole) (DAPI), and stayed at room temperature for 10 min; washed off DAPI, 5 min×3 times; added 70% glycerol to seal the slices to avoid air bubbles. Observed and took pictures under a microscope. Selected basically the same target brain area for each slice. Afterwards, ImageJ was used to count the signal number or area of the entire slice.
Experimental Methods: Seventy 180-220g SD male rats were selected and fed for one week for accumulation, and the PD model was established by stereotactic unilateral injection of 6-OHDA in the Substantia Nigra (SN) and Striatum (Str) regions and were randomly divided into five groups according to their body weights including Madopar group (Madopar, 50 mg/kg), BTUDC-L group (BTUDC, 100 mg/kg), BTUDC-M group (BTUDC, 500 mg/kg), and BTUDC-H group (BTUDC, 1000 mg/kg), with 10 animals in each group. Another 10 SD male rats were taken for sham operation (only 4 μL of 0.9% NS containing 0.02% ascorbic acid was given to the SN and Str brain regions during modeling) as the Sham group. The drug was administered by gavage once daily continuously for 21 days starting on the second day of modeling (first day of dosing, D1). General observation was made during the dosing period. At the end of the administration, the test articles were evaluated for tolerance in this model and in behavioral apomorphine—asymmetric rotation test, beam test, rotarod test and grip strength test, immunofluorescence staining (TH, Ibal), and cerebrospinal fluid inflammatory factor assays to evaluate the pharmacodynamic effects of the test articles. Inflammatory factors tested included interleukin 6 (1L-6), inflammatory factor […], Tumor Necrosis Factor alpha (TNF-α), inflammatory assays were done in a total of 4 groups included Sham, Model, Madopar and BTUDC-H groups.
Dosing volume: 10 mL/kg • 1. General observation: During the period of drug administration, body weight, food intake test and cage side observation were conducted every 3 days. • 2. Behavioral test: After 21 days of administration, behavioral test was carried out on the following day. • 3. […]

TNF-α = test: Elisa test of cerebrospinal fluid, TNF-α; type: in vivo, Sprague-Dawley rats; conditions: rat cerebrospinal fluid; BTUDC-H 1000 mg/kg p.o. Qd 21 days; Mean ± SEM, n=10; Model 271.022 ± 8.145; p<0.05 vs Model
Excerpt: The cerebrospinal fluid was directly extracted by inserting a needle through the foramen magnum, and the supernatant was collected after centrifugation for ELISA testing. The kit brand was Shanghai Enzyme Link. The product codes of IL-6, IL-1β, and TNF-α were m1064292, m1037361, and m1002859, respectively. Processed the sample according to the instructions of the ELISA detection kit, adjusted the blank well to zero, measured the absorbance (OD value) of each well sequentially at a wavelength of 450 nm, and calculated the sample concentration based on the standard curve and OD value. […]
Dosing volume: 10 mL/kg • 1. […] Histochemical test: After the behavioral test, the cerebrospinal fluid from each animal (N=10) was collected, centrifuged to collect the supernatant, and stored at −80° C. for Elisa test (IL-6, IL-1β, TNF-α), then the animals in each group (N=5) were randomly selected to take the modeling side of the striatum for the detection of neurotransmitters, and the rest of them (N=5) were subjected to cardiac perfusion, which was performed by the process of perfusion, fixation, sedimentation and slicing for immunofluorescence staining and photographed, and the number or area of signals were counted by ImageJ software. • 4. […]

[2] = BTUDC-H 1000 mg/kg p.o. Qd 21 days, p<0.001 vs Model

COc1ccc2cc3[n+](cc2c1OC)CCc1cc2c(cc1-3)OCO2.C[C@H](CCC(=O)NCCS(=O)(=O)[O-])[C@H]1CC[C@H]2[C@@H]3[C@@H](O)C[C@@H]4C[C@H](O)CC[C@]4(C)[C@H]3CC[C@]12C [BTUDC, Berberine tauroursodeoxycholate]
Iba-1 staining SN positive cells num. [1, 2]: 270.0 ± 21.5
Iba-1 staining Str positive cells num. [1, 2]: 556.5 ± 16.2
Iba-1 staining SN positive cells num. ([1]; BTUDC-L 100 mg/kg p.o. Qd 21 days, no significance mark): 413.7 ± 42.8
Iba-1 staining Str positive cells num. ([1]; BTUDC-L 100 mg/kg p.o. Qd 21 days, p<0.01 vs Model): 601.7 ± 14.2
Iba-1 staining SN positive cells num. ([1]; BTUDC-M 500 mg/kg p.o. Qd 21 days, no significance mark): 393.1 ± 20.1
Iba-1 staining Str positive cells num. ([1]; BTUDC-M 500 mg/kg p.o. Qd 21 days, p<0.01 vs Model): 602.7 ± 9.1
TNF-α Conc. (TNF-α): 250.424 ± 9.186 pg/mL
